Experimental data from ChEMBL document CHEMBL3861969, “Acredinone C and the Effect of Acredinones on Osteoclastogenic and Osteoblastogenic Activity” (J Nat Prod, 2016).
Active and inactive are the calls of the source. The rule behind the calls is not given here.

What was measured:
[1] = target: RAC-alpha serine/threonine-protein kinase (Mus musculus) (UniProt P31750); assay: Inhibition of RANKL-induced AKT phosphorylation in mouse BMDM cells assessed as ratio of phosphorylated AKT to AKT at 10 uM preincubated for 5 mins followed RANKL/M-CSF addition for 5 mins by Western blot analysis (reference value: 2.1); assay type: cell-based
Mus musculus [2] = organism: Mus musculus; assay: Cytotoxicity against mouse BMDM cells assessed as reduction in cell viability at 30 uM after 3 days in presence of M-CSF by CCK-8 assay; assay type: toxicity, cell-based; conditions: 72 h
BMDM [3] = assay: Inhibition of RANKL-induced mouse BMDM cell differentiation assessed as TRAP-positive MNCs at 0.1 to 10 uM preincubated for 5 mins followed by RANKL/M-CSF addition measured after 4 days by TRAP-staining based assay; assay type: functional
[4] = target: Mitogen-activated protein kinase 9 (Mus musculus) (UniProt Q9WTU6); assay: Inhibition of RANKL-induced JNK2 phosphorylation in mouse BMDM cells assessed as ratio of phosphorylated JNK2 to JNK2 at 10 uM preincubated for 5 mins followed RANKL/M-CSF addition for 5 mins by Western blot analysis (reference value: 5.2); assay type: cell-based
[5] = target: Mitogen-activated protein kinase 8 (Mus musculus) (UniProt Q91Y86); assay: Inhibition of RANKL-induced JNK1 phosphorylation in mouse BMDM cells assessed as ratio of phosphorylated JNK1 to JNK1 at 10 uM preincubated for 5 mins followed RANKL/M-CSF addition for 5 mins by Western blot analysis (reference value: 3.7); assay type: cell-based
Mus musculus [6] = organism: Mus musculus; assay: Cytotoxicity against mouse C2C12 cells assessed as reduction cell viability after 3 days in presence of BMP2 by CCK-8 assay; assay type: toxicity, cell-based; conditions: c2c12, 72 h
Mus musculus [7] = organism: Mus musculus; assay: Cytotoxicity against mouse BMDM cells assessed as reduction in cell viability up to 10 uM after 3 days in presence of M-CSF by CCK-8 assay; assay type: toxicity, cell-based; conditions: 72 h
BMDM [8] = assay: Inhibition of RANKL-induced NFATc1 mRNA expression in mouse BMDM cells at 10 uM preincubated with cells followed by RANKL addition measured after 2 days by real-time PCR analysis; assay type: functional, cell-based
[9] = Inhibition of RANKL-induced c-Fos expression in mouse BMDM cells assessed as ratio of c-Fos to actin at 10 uM preincubated with cells followed RANKL/M-CSF addition measured after 1 day by Western blot analysis (reference value: 6.4); assay type: functional
Osteoclast = assay: Inhibition of RANKL-induced mouse BMDM cell differentiation assessed as reduction in TRAP-positive multi-nucleated osteoclast cells preincubated for 5 mins followed by RANKL/M-CSF addition measured after 4 days by light microscopic analysis; assay type: functional, cell-based
C2C12 = assay: Induction of BMP2-induced osteoblast differentiation in mouse C2C12 cells assessed as increase in ALP mRNA expression at 10 uM preincubated with cells followed by BMP2 addition measured after 3 days by real-time PCR analysis; assay type: functional, cell-based
BMDM [10] = assay: Inhibition of RANKL-induced mouse BMDM cell differentiation assessed as reduction in TRAP activity at 0.1 to 30 uM using p-nitrophenyl phosphate as substrate preincubated for 5 mins followed by RANKL/M-CSF addition measured after 4 days; assay type: functional, cell-based
BMDM [11] = assay: Inhibition of RANKL-induced mouse BMDM cell differentiation assessed as TRAP-positive MNCs at 0.1 to 30 uM preincubated for 5 mins followed by RANKL/M-CSF addition measured after 4 days by TRAP-staining based assay; assay type: functional
BMDM [12] = assay: Inhibition of RANKL-induced TRAP mRNA expression in mouse BMDM cells at 10 uM preincubated with cells followed by RANKL addition measured after 2 days by real-time PCR analysis; assay type: functional, cell-based
[13] = Inhibition of RANKL-induced NFATc1 expression in mouse BMDM cells assessed as ratio of NFATc1 to actin at 10 uM preincubated with cells followed RANKL/M-CSF addition measured after 1day by Western blot analysis (reference value: 281); assay type: functional
[14] = target: T1, NF-kappa-B inhibitor alpha (Mus musculus) (UniProt Q9Z1E3); assay: Inhibition of RANKL-induced IkBalpha phosphorylation in mouse BMDM cells at 10 uM preincubated for 5 mins followed RANKL/M-CSF addition for 5 mins by Western blot analysis; assay type: cell-based
T1 sequence (whole entry): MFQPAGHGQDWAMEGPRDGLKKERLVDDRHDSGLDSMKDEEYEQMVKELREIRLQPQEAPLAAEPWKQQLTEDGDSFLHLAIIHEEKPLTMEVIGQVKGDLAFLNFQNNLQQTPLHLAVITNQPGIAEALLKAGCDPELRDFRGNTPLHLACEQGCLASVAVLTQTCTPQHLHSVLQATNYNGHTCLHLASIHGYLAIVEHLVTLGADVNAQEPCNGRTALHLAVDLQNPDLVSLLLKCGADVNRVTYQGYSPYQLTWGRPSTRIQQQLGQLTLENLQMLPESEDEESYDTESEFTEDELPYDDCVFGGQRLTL

BMDM [15] = assay: Inhibition of RANKL-induced cathespin K mRNA expression in mouse BMDM cells at 10 uM preincubated with cells followed by RANKL addition measured after 2 days by real-time PCR analysis; assay type: functional, cell-based
[16] = target: MAP kinase p38 (Mus musculus) (UniProt P47811+O08911+Q9WUI1+Q9Z1B7); assay: Inhibition of RANKL-induced p38 phosphorylation in mouse BMDM cells assessed as ratio of phosphorylated p38 to p38 at 10 uM preincubated for 5 mins followed RANKL/M-CSF addition for 5 mins by Western blot analysis (reference value: 24.7); assay type: cell-based
BMDM [17] = assay: Inhibition of RANKL-induced DC-STAMP mRNA expression in mouse BMDM cells at 10 uM preincubated with cells followed by RANKL addition measured after 2 days by real-time PCR analysis; assay type: functional, cell-based
[18] = target: Mitogen-activated protein kinase 3 (Mus musculus) (UniProt Q63844); assay: Inhibition of RANKL-induced ERK1 phosphorylation in mouse BMDM cells assessed as ratio of phosphorylated ERK1 to ERK1 at 10 uM preincubated for 5 mins followed RANKL/M-CSF addition for 5 mins by Western blot analysis (reference value: 2.9); assay type: cell-based
BMDM [19] = assay: Inhibition of RANKL-induced OSCAR mRNA expression in mouse BMDM cells at 10 uM preincubated with cells followed by RANKL addition measured after 2 days by real-time PCR analysis; assay type: functional, cell-based
[20] = target: Mitogen-activated protein kinase 1 (Mus musculus) (UniProt P63085); assay: Inhibition of RANKL-induced ERK2 phosphorylation in mouse BMDM cells assessed as ratio of phosphorylated ERK2 to ERK2 at 10 uM preincubated for 5 mins followed RANKL/M-CSF addition for 5 mins by Western blot analysis (reference value: 2.6); assay type: cell-based
BMDM [21] = assay: Inhibition of RANKL-induced c-Src mRNA expression in mouse BMDM cells at 10 uM preincubated with cells followed by RANKL addition measured after 2 days by real-time PCR analysis; assay type: functional, cell-based

Sequence of RAC-alpha serine/threonine-protein kinase (Mus musculus) (P31750 whole entry): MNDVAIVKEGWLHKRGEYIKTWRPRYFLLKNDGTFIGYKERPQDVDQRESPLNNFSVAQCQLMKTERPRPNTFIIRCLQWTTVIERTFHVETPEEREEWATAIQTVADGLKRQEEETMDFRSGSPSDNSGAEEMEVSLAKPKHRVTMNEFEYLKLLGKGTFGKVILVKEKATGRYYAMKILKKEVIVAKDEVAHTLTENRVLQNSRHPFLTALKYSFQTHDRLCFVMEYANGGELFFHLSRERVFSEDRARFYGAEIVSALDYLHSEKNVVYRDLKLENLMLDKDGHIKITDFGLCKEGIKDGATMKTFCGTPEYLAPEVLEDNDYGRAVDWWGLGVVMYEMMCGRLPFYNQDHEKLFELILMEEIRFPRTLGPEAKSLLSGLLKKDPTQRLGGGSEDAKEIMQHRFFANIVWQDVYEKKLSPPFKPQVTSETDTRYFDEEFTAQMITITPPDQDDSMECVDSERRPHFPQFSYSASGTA
Sequence of Mitogen-activated protein kinase 9 (Mus musculus) (Q9WTU6 whole entry): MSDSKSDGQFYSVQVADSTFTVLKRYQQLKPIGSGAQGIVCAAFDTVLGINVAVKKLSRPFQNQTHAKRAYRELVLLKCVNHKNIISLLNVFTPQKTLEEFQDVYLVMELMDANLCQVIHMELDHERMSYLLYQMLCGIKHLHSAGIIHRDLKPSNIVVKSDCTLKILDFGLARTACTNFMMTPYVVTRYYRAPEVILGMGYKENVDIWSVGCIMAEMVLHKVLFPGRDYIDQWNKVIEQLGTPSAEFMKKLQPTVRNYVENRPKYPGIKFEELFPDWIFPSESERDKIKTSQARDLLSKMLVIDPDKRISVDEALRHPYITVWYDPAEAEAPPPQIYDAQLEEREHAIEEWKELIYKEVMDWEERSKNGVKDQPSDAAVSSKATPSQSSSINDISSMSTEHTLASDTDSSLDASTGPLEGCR
Sequence of Mitogen-activated protein kinase 1 (Mus musculus) (P63085 whole entry): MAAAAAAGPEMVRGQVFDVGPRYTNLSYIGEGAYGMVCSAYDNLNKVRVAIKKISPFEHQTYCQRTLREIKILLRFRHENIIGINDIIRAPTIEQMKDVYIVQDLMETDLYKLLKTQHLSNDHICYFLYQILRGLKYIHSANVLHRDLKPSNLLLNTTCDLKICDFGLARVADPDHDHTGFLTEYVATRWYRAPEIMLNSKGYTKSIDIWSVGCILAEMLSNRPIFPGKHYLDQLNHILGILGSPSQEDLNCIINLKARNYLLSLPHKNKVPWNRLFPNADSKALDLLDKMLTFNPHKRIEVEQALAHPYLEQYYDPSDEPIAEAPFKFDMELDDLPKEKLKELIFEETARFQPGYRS
Sequence of Mitogen-activated protein kinase 3 (Mus musculus) (Q63844 whole entry): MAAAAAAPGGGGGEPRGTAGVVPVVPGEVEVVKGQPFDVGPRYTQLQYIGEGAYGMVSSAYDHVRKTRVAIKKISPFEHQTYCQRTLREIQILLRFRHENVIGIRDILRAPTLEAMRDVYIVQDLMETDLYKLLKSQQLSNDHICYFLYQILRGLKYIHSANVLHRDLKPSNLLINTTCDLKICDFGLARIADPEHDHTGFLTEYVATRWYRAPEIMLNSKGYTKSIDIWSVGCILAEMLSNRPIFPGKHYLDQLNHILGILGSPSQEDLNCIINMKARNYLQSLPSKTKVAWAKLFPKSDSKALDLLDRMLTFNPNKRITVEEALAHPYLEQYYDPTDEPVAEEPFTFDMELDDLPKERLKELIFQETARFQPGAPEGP
Sequence of Mitogen-activated protein kinase 8 (Mus musculus) (Q91Y86 whole entry): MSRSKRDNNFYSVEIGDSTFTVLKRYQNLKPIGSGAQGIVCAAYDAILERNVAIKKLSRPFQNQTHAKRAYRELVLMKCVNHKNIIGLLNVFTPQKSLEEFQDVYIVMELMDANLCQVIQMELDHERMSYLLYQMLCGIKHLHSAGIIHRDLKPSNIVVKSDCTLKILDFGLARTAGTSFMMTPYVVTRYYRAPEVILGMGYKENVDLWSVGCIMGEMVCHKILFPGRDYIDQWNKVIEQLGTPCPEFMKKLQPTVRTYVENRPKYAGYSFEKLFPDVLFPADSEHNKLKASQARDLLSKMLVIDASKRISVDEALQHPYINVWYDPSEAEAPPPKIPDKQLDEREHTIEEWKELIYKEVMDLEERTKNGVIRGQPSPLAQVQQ

SMILES: COc1cccc(OC)c1C(=O)c1c(O)cc(C)c(OC)c1CC(=O)c1c(OC)c(C)cc(O)c1C(=O)c1c(OC)cccc1OC
- fold change (FC) [1]: 1.1
- Activity (Mus musculus [2]): Toxic
- inhibition (BMDM [3]): Active
- fold change (FC) [4]: 4.2
- fold change (FC) [5]: 2.7
- Activity (Mus musculus [6]): Non-Toxic
- Activity (Mus musculus [7]): Non-Toxic
- inhibition (BMDM [8]): Active
- fold change (FC) [9]: 3.5
- inhibition (Osteoclast): Dose-dependent effect
- Activity (C2C12): Active
- inhibition (BMDM [10]): Active
- inhibition (BMDM [11]): Active
- inhibition (BMDM [12]): Active
- fold change (FC) [13]: 124
- inhibition [14]: Active
- inhibition (BMDM [15]): Active
- fold change (FC) [16]: 20.2
- inhibition (BMDM [17]): Active
- fold change (FC) [18]: 2.1
- inhibition (BMDM [19]): Active
- fold change (FC) [20]: 1.7
- inhibition (BMDM [21]): Active
